Assay results from ChEMBL document CHEMBL1154184, “Rational design and synthesis of potent dibenzazepine motifs as beta-secretase inhibitors” (J Med Chem, 2009).

These compounds were tested against Beta-secretase 1 (Homo sapiens, UniProt P56817) (assay: Inhibition of human recombinant BACE1 by FRET assay).
Chain of Beta-secretase 1 (P56817 whole entry): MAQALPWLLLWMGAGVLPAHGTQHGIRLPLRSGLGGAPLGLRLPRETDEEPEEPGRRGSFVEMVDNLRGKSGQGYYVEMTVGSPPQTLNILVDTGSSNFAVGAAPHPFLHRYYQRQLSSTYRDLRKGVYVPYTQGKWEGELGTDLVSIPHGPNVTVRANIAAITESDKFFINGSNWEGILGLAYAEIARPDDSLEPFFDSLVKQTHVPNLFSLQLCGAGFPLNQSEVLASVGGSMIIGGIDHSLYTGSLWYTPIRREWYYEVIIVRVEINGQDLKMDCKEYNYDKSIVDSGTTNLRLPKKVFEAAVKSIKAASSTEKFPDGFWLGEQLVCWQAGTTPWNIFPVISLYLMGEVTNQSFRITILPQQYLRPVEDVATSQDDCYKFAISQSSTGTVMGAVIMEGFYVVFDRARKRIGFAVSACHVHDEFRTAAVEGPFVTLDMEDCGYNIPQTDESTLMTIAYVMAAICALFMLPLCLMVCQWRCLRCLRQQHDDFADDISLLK

SMILES | Ki [nM]
O=C(Nc1nc2ccc(F)cc2[nH]1)c1ccc2c(c1)Nc1ccccc1NC2=O | 244
O=C(Nc1ccc(F)cc1)c1ccc2c(c1)Nc1ccccc1NC2=O | 211
O=C(Nc1nc(-c2ccc(F)cc2)c[nH]1)c1ccc2c(c1)Nc1ccccc1NC2=O | 293
O=C(Nc1nc2ccncc2[nH]1)c1ccc2c(c1)Nc1ccccc1NC2=O | 309
O=C(Nc1nc(-c2ccncc2)c[nH]1)c1ccc2c(c1)Nc1ccccc1NC2=O | 348
O=C(Nc1ccncc1)c1ccc2c(c1)Nc1ccccc1NC2=O | 295
C[C@@H](NC(=O)c1cc(NS(C)(=O)=O)cc(C(=O)N[C@@H](Cc2ccccc2)[C@@H](O)CNC2CC2)c1)c1ccc(F)cc1 | 10
